Test results taken from ChEMBL document CHEMBL1145498, “A systematic interaction map of validated kinase inhibitors with Ser/Thr kinases” (Proc Natl Acad Sci U S A, 2007).

Tests used:
[1] = target: Calcium/calmodulin-dependent protein kinase kinase 2 (Homo sapiens, UniProt Q96RR4)
[2] = target: T1, Myotonin-protein kinase (Homo sapiens) (UniProt Q09013)
T1 sequence (whole entry): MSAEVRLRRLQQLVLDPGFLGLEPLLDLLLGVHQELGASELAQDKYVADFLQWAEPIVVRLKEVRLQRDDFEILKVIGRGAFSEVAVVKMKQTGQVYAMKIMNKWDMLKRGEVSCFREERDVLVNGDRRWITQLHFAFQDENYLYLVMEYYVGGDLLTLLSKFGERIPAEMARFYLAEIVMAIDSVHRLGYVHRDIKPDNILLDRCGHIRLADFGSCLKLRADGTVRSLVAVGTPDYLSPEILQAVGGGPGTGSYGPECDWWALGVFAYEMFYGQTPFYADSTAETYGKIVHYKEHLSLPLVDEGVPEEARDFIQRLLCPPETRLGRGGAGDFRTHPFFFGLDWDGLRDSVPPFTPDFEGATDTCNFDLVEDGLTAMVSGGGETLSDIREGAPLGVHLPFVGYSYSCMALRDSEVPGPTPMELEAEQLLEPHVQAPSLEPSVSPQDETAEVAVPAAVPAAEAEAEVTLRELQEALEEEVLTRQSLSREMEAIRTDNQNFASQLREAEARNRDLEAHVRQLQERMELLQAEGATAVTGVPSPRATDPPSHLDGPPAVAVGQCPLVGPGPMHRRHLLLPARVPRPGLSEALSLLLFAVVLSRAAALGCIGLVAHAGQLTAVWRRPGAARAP

[3] = target: cAMP-dependent protein kinase catalytic subunit alpha (Homo sapiens) (UniProt P17612)
[4] = target: Serine/threonine-protein kinase PAK 5 (Homo sapiens) (UniProt Q9P286)
Sequence of Serine/threonine-protein kinase PAK 5 (Homo sapiens) (Q9P286 whole entry, looked up): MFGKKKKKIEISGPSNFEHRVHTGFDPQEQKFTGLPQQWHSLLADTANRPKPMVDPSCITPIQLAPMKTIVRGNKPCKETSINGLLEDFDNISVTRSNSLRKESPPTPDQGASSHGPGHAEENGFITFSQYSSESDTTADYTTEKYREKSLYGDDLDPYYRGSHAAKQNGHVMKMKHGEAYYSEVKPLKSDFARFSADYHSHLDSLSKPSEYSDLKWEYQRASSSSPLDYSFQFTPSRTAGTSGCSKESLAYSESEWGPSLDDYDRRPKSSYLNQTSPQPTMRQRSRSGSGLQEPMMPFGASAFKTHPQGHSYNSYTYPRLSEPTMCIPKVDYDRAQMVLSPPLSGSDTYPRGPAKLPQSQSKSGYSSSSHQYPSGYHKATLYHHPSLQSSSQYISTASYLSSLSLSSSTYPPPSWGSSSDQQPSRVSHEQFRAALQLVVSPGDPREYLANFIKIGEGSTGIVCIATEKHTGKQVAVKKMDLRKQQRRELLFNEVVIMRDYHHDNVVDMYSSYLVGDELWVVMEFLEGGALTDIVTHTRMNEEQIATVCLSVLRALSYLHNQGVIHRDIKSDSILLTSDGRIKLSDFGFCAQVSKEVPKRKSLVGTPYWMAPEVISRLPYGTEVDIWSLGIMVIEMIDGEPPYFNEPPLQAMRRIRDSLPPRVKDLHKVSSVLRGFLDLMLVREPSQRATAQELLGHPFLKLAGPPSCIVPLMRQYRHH

[5] = target: Serine/threonine-protein kinase 26 (Homo sapiens) (UniProt Q9P289)
Sequence of Serine/threonine-protein kinase 26 (Homo sapiens) (Q9P289 2-416 limits assumed): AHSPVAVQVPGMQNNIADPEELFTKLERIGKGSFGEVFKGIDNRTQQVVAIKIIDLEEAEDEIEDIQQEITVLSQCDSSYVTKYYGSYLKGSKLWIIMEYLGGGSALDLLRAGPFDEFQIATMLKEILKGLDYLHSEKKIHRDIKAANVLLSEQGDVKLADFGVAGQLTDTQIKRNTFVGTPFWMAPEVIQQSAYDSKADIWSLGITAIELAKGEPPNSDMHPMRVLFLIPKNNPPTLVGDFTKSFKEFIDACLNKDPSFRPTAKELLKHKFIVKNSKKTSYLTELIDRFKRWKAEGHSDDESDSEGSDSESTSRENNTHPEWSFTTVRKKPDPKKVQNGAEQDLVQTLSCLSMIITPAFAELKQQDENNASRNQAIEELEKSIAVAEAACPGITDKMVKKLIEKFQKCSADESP

[6] = target: Calcium/calmodulin-dependent protein kinase type II subunit beta (Homo sapiens) (UniProt Q13554)
Sequence of Calcium/calmodulin-dependent protein kinase type II subunit beta (Homo sapiens) (Q13554 whole entry): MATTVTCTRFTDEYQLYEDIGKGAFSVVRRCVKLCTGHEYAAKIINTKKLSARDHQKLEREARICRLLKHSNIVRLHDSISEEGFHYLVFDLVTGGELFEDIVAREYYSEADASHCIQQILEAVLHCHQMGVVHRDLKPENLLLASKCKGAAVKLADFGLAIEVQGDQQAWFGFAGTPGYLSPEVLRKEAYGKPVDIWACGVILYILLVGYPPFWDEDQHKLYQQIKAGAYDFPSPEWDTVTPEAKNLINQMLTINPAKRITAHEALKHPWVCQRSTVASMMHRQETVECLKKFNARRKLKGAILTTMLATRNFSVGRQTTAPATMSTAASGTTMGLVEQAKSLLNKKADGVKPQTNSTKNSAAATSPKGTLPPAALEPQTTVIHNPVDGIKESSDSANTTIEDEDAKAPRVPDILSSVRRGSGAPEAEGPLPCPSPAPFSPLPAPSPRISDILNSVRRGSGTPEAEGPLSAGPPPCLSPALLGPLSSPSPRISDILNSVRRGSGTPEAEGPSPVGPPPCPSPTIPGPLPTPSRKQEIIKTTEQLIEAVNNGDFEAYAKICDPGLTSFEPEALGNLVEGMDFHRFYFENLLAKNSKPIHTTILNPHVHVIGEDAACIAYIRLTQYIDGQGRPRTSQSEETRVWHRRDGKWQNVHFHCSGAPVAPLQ

[7] = target: Serine/threonine-protein kinase RIO2 (Homo sapiens) (UniProt Q9BVS4)
Sequence of Serine/threonine-protein kinase RIO2 (Homo sapiens) (Q9BVS4 whole entry, looked up): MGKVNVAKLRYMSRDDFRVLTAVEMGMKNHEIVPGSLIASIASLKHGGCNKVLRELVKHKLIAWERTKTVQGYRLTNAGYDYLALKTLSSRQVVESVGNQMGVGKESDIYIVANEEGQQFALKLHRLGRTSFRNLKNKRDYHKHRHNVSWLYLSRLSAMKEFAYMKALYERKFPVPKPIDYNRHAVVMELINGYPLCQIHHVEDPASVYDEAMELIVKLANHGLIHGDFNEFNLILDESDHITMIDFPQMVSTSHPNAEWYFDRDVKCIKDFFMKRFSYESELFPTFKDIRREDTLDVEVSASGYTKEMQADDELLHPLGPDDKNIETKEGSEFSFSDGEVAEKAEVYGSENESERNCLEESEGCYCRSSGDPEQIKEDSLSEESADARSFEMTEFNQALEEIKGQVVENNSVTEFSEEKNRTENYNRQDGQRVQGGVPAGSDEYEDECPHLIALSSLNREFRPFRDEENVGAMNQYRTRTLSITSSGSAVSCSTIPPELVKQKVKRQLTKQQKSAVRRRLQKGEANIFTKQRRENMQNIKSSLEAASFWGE

[8] = target: Epidermal growth factor receptor (Homo sapiens, UniProt P00533)
[9] = target: Mitogen-activated protein kinase 3 (Homo sapiens, UniProt P27361)
Sequence of Mitogen-activated protein kinase 3 (P27361 whole entry): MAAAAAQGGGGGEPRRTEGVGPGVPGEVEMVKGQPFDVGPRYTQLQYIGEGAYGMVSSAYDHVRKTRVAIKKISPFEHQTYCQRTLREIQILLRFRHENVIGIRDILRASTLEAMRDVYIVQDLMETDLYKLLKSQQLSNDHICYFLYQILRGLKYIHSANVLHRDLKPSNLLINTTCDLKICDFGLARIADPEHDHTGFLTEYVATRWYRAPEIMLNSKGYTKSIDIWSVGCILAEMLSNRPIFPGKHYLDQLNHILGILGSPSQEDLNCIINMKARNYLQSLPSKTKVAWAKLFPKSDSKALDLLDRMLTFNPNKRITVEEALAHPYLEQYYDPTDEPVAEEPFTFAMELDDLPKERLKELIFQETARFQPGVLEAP

[10] = target: T2, Dual specificity mitogen-activated protein kinase kinase 6 (Homo sapiens) (UniProt P52564)
T2 sequence (whole entry): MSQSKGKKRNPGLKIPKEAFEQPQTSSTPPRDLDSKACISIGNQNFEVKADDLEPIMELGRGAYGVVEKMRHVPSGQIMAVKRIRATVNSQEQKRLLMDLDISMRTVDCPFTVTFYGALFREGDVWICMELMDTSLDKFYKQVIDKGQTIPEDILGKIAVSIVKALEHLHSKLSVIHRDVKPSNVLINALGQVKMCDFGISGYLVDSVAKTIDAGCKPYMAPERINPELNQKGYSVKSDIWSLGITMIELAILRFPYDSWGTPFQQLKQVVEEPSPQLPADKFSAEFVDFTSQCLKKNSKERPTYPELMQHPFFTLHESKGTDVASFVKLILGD

[11] = target: Serine/threonine-protein kinase 38 (Homo sapiens) (UniProt Q15208)
Sequence of Serine/threonine-protein kinase 38 (Homo sapiens) (Q15208 2-465 limits assumed): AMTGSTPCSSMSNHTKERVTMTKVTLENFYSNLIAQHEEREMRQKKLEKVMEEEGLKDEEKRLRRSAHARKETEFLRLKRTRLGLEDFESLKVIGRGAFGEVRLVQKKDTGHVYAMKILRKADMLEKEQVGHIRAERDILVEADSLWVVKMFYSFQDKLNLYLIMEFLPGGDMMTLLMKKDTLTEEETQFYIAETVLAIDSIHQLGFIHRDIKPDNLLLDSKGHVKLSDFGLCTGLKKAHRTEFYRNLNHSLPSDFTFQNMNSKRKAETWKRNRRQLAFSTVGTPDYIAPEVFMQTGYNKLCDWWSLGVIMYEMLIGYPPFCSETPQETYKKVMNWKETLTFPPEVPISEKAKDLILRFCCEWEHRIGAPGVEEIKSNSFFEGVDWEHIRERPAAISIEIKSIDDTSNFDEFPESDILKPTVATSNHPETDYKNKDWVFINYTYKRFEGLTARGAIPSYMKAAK

[12] = target: Serine/threonine-protein kinase Nek6 (Homo sapiens) (UniProt Q9HC98)
Sequence of Serine/threonine-protein kinase Nek6 (Homo sapiens) (Q9HC98 whole entry): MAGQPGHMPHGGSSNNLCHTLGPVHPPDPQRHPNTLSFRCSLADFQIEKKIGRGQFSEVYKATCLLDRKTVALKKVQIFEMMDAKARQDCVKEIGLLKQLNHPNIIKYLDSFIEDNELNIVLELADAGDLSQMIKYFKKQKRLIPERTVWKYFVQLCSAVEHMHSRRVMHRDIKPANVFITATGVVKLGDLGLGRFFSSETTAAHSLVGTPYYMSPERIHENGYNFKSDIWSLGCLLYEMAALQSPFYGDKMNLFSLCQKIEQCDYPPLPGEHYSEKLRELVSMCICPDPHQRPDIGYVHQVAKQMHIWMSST

[13] = target: Serine/threonine-protein kinase Chk2 (Homo sapiens, UniProt O96017)
Sequence of Serine/threonine-protein kinase Chk2 (O96017 whole entry): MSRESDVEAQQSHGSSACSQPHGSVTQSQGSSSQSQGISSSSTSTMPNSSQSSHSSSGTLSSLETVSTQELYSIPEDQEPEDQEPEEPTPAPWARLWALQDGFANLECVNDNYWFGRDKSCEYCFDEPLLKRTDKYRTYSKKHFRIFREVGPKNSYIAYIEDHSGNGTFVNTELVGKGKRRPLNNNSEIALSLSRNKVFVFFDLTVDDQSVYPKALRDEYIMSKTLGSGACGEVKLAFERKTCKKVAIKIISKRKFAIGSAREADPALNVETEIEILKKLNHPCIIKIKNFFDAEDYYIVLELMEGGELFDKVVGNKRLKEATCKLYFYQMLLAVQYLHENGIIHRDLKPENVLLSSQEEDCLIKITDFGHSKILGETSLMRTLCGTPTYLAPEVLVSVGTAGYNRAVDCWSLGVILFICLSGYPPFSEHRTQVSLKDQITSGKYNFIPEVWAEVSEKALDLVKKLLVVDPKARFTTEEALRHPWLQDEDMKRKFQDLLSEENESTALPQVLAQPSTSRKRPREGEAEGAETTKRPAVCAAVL

[14] = target: Dual specificity mitogen-activated protein kinase kinase 2 (Homo sapiens, UniProt P36507)
Sequence of Dual specificity mitogen-activated protein kinase kinase 2 (P36507 whole entry): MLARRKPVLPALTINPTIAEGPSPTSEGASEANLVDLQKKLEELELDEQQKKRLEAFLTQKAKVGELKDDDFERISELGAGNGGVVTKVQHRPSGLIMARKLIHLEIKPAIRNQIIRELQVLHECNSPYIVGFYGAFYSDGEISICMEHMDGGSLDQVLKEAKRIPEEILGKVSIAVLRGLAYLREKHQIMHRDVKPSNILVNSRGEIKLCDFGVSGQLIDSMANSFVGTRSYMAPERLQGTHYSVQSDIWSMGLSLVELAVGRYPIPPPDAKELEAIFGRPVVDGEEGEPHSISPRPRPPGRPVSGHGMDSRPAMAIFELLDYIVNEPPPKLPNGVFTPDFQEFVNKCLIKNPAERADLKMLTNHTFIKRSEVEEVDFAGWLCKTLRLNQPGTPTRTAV

[15] = Binding affinity at PKA
[16] = target: Myosin light chain kinase, smooth muscle (Homo sapiens, UniProt Q15746); experiment: Binding affinity at MLCK
[17] = tested on: NT2; experiment: Inhibition of lysophosphatidic acid-induced MARCKS phosphorylation in human NT2 cells; type: functional, cell-based
[18] = Binding affinity at ROCK
[19] = Binding affinity at PKC
[20] = target: TGF-beta receptor type-1 (Homo sapiens, UniProt P36897)
Sequence of TGF-beta receptor type-1 (P36897 whole entry): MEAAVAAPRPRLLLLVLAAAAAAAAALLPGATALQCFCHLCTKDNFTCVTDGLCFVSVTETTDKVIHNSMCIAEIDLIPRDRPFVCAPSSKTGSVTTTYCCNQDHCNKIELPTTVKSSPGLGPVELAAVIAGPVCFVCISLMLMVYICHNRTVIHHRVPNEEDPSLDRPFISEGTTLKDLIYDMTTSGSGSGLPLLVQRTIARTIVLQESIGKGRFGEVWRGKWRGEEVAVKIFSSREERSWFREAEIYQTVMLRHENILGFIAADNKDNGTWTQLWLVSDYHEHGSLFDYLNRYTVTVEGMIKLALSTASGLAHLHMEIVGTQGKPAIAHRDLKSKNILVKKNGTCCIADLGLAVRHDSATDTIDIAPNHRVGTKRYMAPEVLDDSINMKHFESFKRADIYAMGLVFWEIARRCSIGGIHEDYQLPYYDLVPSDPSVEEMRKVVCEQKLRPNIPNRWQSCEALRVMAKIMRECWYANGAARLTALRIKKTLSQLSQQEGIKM

[21] = target: Cyclin-dependent kinase 2 (Homo sapiens, UniProt P24941)
[22] = tested on: KB; experiment: cells; details: Homo sapiens
[23] = tested on: KB; experiment: cells; details: Homo sapiens; remark: listed apart in the source

| Structure (SMILES) | ΔTm [1] | ΔTm [2] | ΔTm [3] | ΔTm [4] | ΔTm [5] | ΔTm [6] | ΔTm [7] | ΔTm [9] | ΔTm [10] | ΔTm [11] | ΔTm [12] | ΔTm [13] | ΔTm [14] | other results |
| --- | --- | --- | --- | --- | --- | --- | --- | --- | --- | --- | --- | --- | --- | --- |
| O=C(O)/C=C/c1cc(CO)ccc1CO | 0.1 °C | -0.1 °C | 0.4 °C | -4.4 °C | 0.2 °C | 0.4 °C | 0.4 °C | 0.2 °C | -0.2 °C | 0.1 °C | -0.2 °C | 0.6 °C | -0.1 °C | IC50 [8]: 780 nM |
| Cc1cncc2cccc(S(=O)(=O)N3CCCNC[C@@H]3C)c12 | -0.1 °C | 0.4 °C | 3.5 °C | 0.5 °C | 0.8 °C | 1.1 °C | 0.4 °C | 0.2 °C | 0.4 °C | 0.6 °C | 0 °C | 1.5 °C | -0.3 °C | Ki [15]: 630 nM; Ki [16]: 10100 nM; IC50 [17]: 2500 nM; Ki [18]: 1.6 nM; Ki [19]: 9270 nM |
| NC(=O)c1ccc(-c2nc(-c3ccc4c(c3)OCCO4)c(-c3ccccn3)[nH]2)cc1 | -1.1 °C | 0.8 °C | -0.3 °C | 0.4 °C | -0.2 °C | 1 °C | 0.7 °C | -0.1 °C | 0.3 °C | 0.5 °C | -0.7 °C | -0.3 °C | -0.1 °C | IC50 [20]: 500 nM |
| CC(C)n1cnc2c(NCc3ccccc3O)nc(NCCCO)nc21 | 0.2 °C | 0 °C | 0.2 °C | 0.2 °C | 0.3 °C | 0.3 °C | -0.1 °C | 0.4 °C | 0.1 °C | 0.3 °C | 0 °C | -0.4 °C | -0.2 °C | IC50 [21]: 80 nM |
| CN1CCC(Nc2ncc3ncnc(Nc4ccc(F)c(Cl)c4)c3n2)CC1 [FALNIDAMOL] | -0.1 °C | 1.4 °C | 0.4 °C | 2.5 °C | – | -0.4 °C | -0.4 °C | 1.7 °C | 0.3 °C | – | 1.5 °C | 0.2 °C | 0.9 °C | IC50 [22]: 1.82 nM; IC50 [23]: 3200 nM |
